Results taken from patent publication US20220118124A1, “R[…]-LABELED, PHOTO-CRO[…], AND PREPARATION METHOD THEREFOR” (SNVIA CO., LTD., priority 2019, published 2022).

Experiment: In vivo local retention experiment of ^131I-HAMA microgel (SPECT gamma imaging after injection into femoral muscle)
Conditions: rat
Description: An experiment was performed to confirm the distribution of ^131I and how long the ^131I-HAMA microgel was maintained at the site injected into the body. After injecting 0.2 mL of a solution of Na^131I and ^131I-HAMA microgel (1 mCi/mL) dispersed in PBS into the femoral muscle of the rat, gamma images were obtained over time with the SPECT imaging system (Infinia Hawkeye 4, GE Healthcare, USA). Within 30 minutes immediately after injection, the radioactivity at the injection site was measured with a counter per second in a dynamic mode. After 30 minutes, an image of the whole rat injected with ^131I over time was obtained in static mode, and gamma counters of major tissues such as the injection site, thyroid gland and stomach were measured.

[131I-].[Na+] [^131I solution, Na^131I]
radiation intensity over time in vivo (after injection into femoral muscle): decreased rapidly
time to flow to the whole body (SPECT image) (intramuscular injection, 200 μCi): 30 min
spreading rate in the body from the injection site (dynamic imaging) (within 30 minutes after injection): faster than that of the ^131I-HAMA microgel
migration of ^131I to other tissues (gamma counts) (injection site, thyroid gland, stomach, bladder): measured in the thyroid gland, stomach, and bladder in addition to the injection site
